Test results as given in patent publication US20230136215A1, “PRODUCTION OF DUNALIELLA” (University of Greenwich, priority 2017, published 2023).

What was measured:
[1] = system: D. salina cultures; assay: D. salina cultures treated with herbicides; carotenoid contents determined by HPLC; format: cell-based, Dunaliella salina; conditions: for yield of phytoene, red light versus white light: herbicide-treated cultures, Table 4; for content of phytoene per cell: continuous white LED light ~200 μmol m^−2 s^−1, 25° C.; for 9-cis/all-trans β-carotene ratio: norflurazon-treated
[2] = Effect of red and blue LED light on all-trans β-carotene dissolved in chloroform; format: physicochemical; conditions: 2.4 μM in chloroform, 24 h, 25° C.
Experimental: FIGS. 10A-10C: Effect of red and blue LED light on all-trans β-carotene. (FIG. 10A) Red light under nitrogen; (FIG. 10B) Red light in air; (FIG. 10C) Blue light in air. All-trans-β-carotene (Sigma) was dissolved in chloroform to a final concentration of 2.4 μM and vials were thoroughly flushed with either nitrogen or air, sealed and incubated for 24 h at 25° C. under LED lights. (FIG. 10A) red, nitrogen; (FIG. 10B), red, air; (FIG. 10C) blue, nitrogen or air. The same results as (FIG. 10A) were obtained for dark under nitrogen or air. […] In (FIG. 10A) (red light under nitrogen) no reaction of β-carotene was detected.

[3] = 20 μM chlorpropham, 6-days cultivation in white LED light
[4] = 20 μM chlorpropham, white light 1500 μmol m^−2 s^−1, 4 days' cultivation
[5] = Table 5 (red light), 1500 μmol m^−2 s^−1, 96 h
[6] = Table 5, red light, 200 μmol m^−2 s^−1, 144 h
[7] = red light 200 pmol m^−2 s^−1 continuous, 48 h, chlorpropham 10 μM, Norflurazon 5 µM
[8] = red light 200 μmol m^−2 s^−1 continuous, 48 h, chlorpropham 10 μM, Norflurazon 5 µM
[9] = white LED light 200 pmol m^−2 s^−1 continuous, 48 h, chlorpropham 10 μM, Norflurazon 5 µM
[10] = white LED light 200 μmol m^−2 s^−1 continuous, 48 h, chlorpropham 10 μM, Norflurazon 5 µM
[11] = Table 5, red light, 200 μmol m^−2 s^−1, 48 h

CC(C)OC(=O)Nc1cccc(Cl)c1 [chlorpropham, isopropyl N-(3-chlorophenyl) carbamate]
final phytoene concentration in the cultures [1, 3]: 3.55 ± 0.11 mg/L | phytoene content in cells [1, 3]: 25.76±1.58 pg cell^−1 | increase of phytoene content in cells ([1]; 20 μM chlorpropham, 6-days cultivation in white LED light, compared to untreated cells): ca. 50 fold | increase of final phytoene concentration in the cultures ([1]; 20 μM chlorpropham, 6-days cultivation in white LED light, compared to untreated cultures): 10 fold | phytoene content [1, 4]: above 30 pg cell^−1 | phytoene yield [1, 4]: 8.2 mg/L | 9-cis β-carotene [1, 5]: 6.96 ± 0.74 pg cell^−1 | 9cis of total [1, 5]: 12% | All-trans α-carotene [1, 5]: 0.44 ± 0.07 pg cell^−1 | All-trans β-carotene [1, 5]: 17.34 ± 0.97 pg cell^−1 | Phytoene [1, 5]: 30.62 ± 1.31 pg cell^−1 | Phytofluene [1, 5]: 1.87 ± 0.12 pg cell^−1 | Total carotenoids (sum) [1, 5]: 58.61 pg cell^−1 | lutein [1, 5]: 0.61 ± 0.03 pg cell^−1 | phytoene + phytofluene of total [1, 5]: 55% | zeaxanthin [1, 5]: 0.77 ± 0.02 pg cell^−1 | 9-cis β-carotene [1, 6]: 31.3 ± 2.49 pg cell^−1 | 9cis of total [1, 6]: 29% | All-trans α-carotene [1, 6]: 1.4 ± 0.13 pg cell^−1 | All-trans β-carotene [1, 6]: 18.34 ± 1.45 pg cell^−1 | Phytoene [1, 6]: 51.88 ± 4.53 pg cell^−1 | Phytofluene [1, 6]: 3.02 ± 0.29 pg cell^−1 | Total carotenoids (sum) [1, 6]: 108.48 pg cell^−1 | lutein [1, 6]: 1.21 ± 0.09 pg cell^−1 | phytoene + phytofluene of total [1, 6]: 51% | zeaxanthin [1, 6]: 1.33 ± 0.10 pg cell^−1 | increase of cellular content of colorless carotenoids ([1]; compared to untreated cultures): more than 30 fold | increase of yield of the colorless carotenoids ([1]; compared to untreated cultures): more than 10 fold | yield of phytoene, red light versus white light ([1]; 48 h): more than doubled | Cell density ([1]; once chlorpropham was added): stopped increasing | 9-cis β-carotene [1, 7]: 14.35 ± 1.24 pg cell^−1 | zeaxanthin [1, 7]: 1.05 ± 0.06 pg cell^−1 | 9cis of total [1, 8]: 39% | Phytoene [1, 8]: 10.56 ± 1.53 pg cell^−1 | Phytofluene [1, 8]: 1.58 ± 0.17 pg cell^−1 | Total carotenoids (sum) [1, 8]: 36.7 pg cell^−1 | lutein [1, 8]: 0.74 ± 0.05 pg cell^−1 | phytoene + phytofluene of total [1, 8]: 33% | phytoene contents under red light versus white light ([1]; same concentration of chlorpropham treatment): higher | optimal concentration range of chlorpropham added to the cultures (phytoene production) ([1]; tested 0, 0.1, 1, 10, 20, 50 and 100 μM, 25° C.): 10 to 50 µM | 9-cis β-carotene [1, 9]: 13.35 ± 1.88 pg cell^−1 | zeaxanthin [1, 9]: 0.84 ± 0.09 pg cell^−1 | 9cis of total [1, 10]: 43% | Phytoene [1, 10]: 4.41 ± 0.65 pg cell^−1 | Phytofluene [1, 10]: 0.67 ± 0.09 pg cell^−1 | Total carotenoids (sum) [1, 10]: 30.99 pg cell^−1 | lutein [1, 10]: 0.83 ± 0.13 pg cell^−1 | phytoene + phytofluene of total [1, 10]: 16%

O=C(O)CNCP(=O)(O)O [glyphosate, 2-(phosphonomethylamino)acetic acid]
content of phytoene per cell [1]: increased

COc1nc(C)nc(NC(=O)NS(=O)(=O)c2ccccc2Cl)n1 [chlorsulfuron, 1-(2-chlorophenyl)sulfonyl-3-(4-methoxy-6-methyl-1,3,5-triazin-2-yl)urea]
content of phytoene per cell [1]: increased

O=C(Nc1ccc(F)cc1F)c1cccnc1Oc1cccc(C(F)(F)F)c1 [Diflufenican, N-(2,4-difluorophenyl)-2-[3-(trifluoromethyl)phenoxy]pyridine-3-carboxamide]
9-cis β-carotene [1, 11]: 10.84 ± 0.19 pg cell^−1 | 9cis of total [1, 11]: 38% | All-trans α-carotene [1, 11]: 0.34 ± 0.00 pg cell^−1 | All-trans β-carotene [1, 11]: 2.98 ± 0.11 pg cell^−1 | Phytoene [1, 11]: 12.78 ± 0.40 pg cell^−1 | Phytofluene [1, 11]: 0.01 ± 0.00 pg cell^−1 | Total carotenoids (sum) [1, 11]: 28.64 pg cell^−1 | lutein [1, 11]: 0.56 ± 0.01 pg cell^−1 | phytoene + phytofluene of total [1, 11]: 45% | zeaxanthin [1, 11]: 1.13 ± 0.06 pg cell^−1

CC1=C(/C=C/C(C)=C/C=C/C(C)=C/C=C/C=C(C)/C=C/C=C(C)/C=C/C2=C(C)CCCC2(C)C)C(C)(C)CCC1 [all-trans β-carotene, all-trans-β-carotene]
destruction of all-trans β-carotene ([2]; blue light, nitrogen or air): fully destroyed | destruction of all-trans β-carotene ([2]; red light under air): 40% | reaction of β-carotene ([2]; red light under nitrogen): no reaction

CCNC(=O)[C@@H](C)OC(=O)Nc1ccccc1 [carbetamide, (R)-1-(ethylcarbamoyl)ethyl carbanilate]
content of phytoene per cell [1]: increased

Nc1cc(Cl)nc(C(=O)O)c1Cl [aminopyralid, 4-amino-3,6-dichloropyridine-2-carboxylic acid]
content of phytoene per cell [1]: increased

CNc1cnn(-c2cccc(C(F)(F)F)c2)c(=O)c1Cl [Norflurazon, 4-chloro-5-methylamino-2-(3-trifluoromethylphenyl)-pyridazin-3(2H)one]
yield of phytoene, red light versus white light ([1]; 48 h): more than doubled | amount of phytoene produced under red light compared to white light ([1]; norflurazon 5 and 50 μM, 200 μmol m^−2 s^−1, 25° C., 48 h): significantly higher | 9-cis/all-trans β-carotene ratio ([1]; red LED light 200 μmol m^−2 s^−1, 25° C., 48 h): 3.9 | 9-cis/all-trans β-carotene ratio ([1]; white LED light 200 μmol m^−2 s^−1, 25° C., 48 h): 1.8 | 9-cis β-carotene [1, 7]: 11.89 ± 0.83 pg cell^−1 | zeaxanthin [1, 7]: 1.12 ± 0.06 pg cell^−1 | 9cis of total [1, 8]: 38% | Phytoene [1, 8]: 14.42 ± 0.95 pg cell^−1 | Phytofluene [1, 8]: 0.02 ± 0.00 pg cell^−1 | Total carotenoids (sum) [1, 8]: 31.55 pg cell^−1 | lutein [1, 8]: 0.62 ± 0.02 pg cell^−1 | phytoene + phytofluene of total [1, 8]: 46% | 9-cis β-carotene [1, 9]: 7.65 ± 0.67 pg cell^−1 | zeaxanthin [1, 9]: 0.80 ± 0.07 pg cell^−1 | 9cis of total [1, 10]: 37% | Phytoene [1, 10]: 7.07 ± 0.36 pg cell^−1 | Phytofluene [1, 10]: 0.01 ± 0.00 pg cell^−1 | Total carotenoids (sum) [1, 10]: 20.6 pg cell^−1 | lutein [1, 10]: 0.52 ± 0.02 pg cell^−1 | phytoene + phytofluene of total [1, 10]: 34%
